# Measured values as given in paper doi:10.1101/2025.03.25.645215v1 (biorxiv, 2025).
# Where two headings read alike, the source gives them in different places.
# Assays:
# [1] = molecular target: T1, B^0AT2/SLC6A15 (eGFP-hSLC6A15) (Homo sapiens, UniProt Q9H2J7); test: cell-based; parameters: species or system HEK293 eGFP-hSLC6A15
# T1 sequence (Q9H2J7 1-730): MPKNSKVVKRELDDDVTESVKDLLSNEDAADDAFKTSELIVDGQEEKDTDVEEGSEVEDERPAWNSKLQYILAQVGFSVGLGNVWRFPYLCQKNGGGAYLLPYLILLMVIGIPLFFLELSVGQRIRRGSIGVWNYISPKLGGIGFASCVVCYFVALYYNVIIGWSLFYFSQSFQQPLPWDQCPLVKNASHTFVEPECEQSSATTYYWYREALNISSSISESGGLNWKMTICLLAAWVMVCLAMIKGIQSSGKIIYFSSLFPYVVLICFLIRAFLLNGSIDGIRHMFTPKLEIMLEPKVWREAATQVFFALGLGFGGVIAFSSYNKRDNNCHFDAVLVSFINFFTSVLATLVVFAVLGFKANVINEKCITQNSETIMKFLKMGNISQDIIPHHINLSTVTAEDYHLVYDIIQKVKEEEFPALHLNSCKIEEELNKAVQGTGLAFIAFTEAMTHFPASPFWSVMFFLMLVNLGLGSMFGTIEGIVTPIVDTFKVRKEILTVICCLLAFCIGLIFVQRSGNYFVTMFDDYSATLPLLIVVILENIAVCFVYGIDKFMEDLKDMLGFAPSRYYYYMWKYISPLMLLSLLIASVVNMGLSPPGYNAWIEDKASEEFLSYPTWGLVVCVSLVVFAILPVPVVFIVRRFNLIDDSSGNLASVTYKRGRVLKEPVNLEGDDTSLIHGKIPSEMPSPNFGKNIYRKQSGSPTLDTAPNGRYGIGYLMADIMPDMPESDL
# [2] = molecular target: T1, B^0AT2/SLC6A15 (eGFP-hSLC6A15); test: cell-based; parameters: species or system HEK293 eGFP-hSLC6A15; remark: listed apart in the source
# [3] = system: NTT4/SLC6A17 (NTT4-B^0AT2 chimera); test: 3H-proline uptake inhibition, HEK293, 384-well; type: cell-based; conditions: blanket statement for all 1,5-benzodiazepine analogs
# [4] = molecular target: GAT1 (hGAT1) (Homo sapiens, UniProt P30531); test: 3H-GABA uptake inhibition, HEK293, 384-well; type: cell-based
# [5] = molecular target: SERT (hSERT) (Homo sapiens, UniProt P31645); test: 3H-5HT uptake inhibition, HEK293, 384-well; type: cell-based
# [6] = molecular target: T1, B^0AT2/SLC6A15 (eGFP-hSLC6A15); test: cell-based; parameters: species or system HEK293 eGFP-hSLC6A15; remark: listed apart in the source
# Sequence of SERT (hSERT) (P31645 whole entry): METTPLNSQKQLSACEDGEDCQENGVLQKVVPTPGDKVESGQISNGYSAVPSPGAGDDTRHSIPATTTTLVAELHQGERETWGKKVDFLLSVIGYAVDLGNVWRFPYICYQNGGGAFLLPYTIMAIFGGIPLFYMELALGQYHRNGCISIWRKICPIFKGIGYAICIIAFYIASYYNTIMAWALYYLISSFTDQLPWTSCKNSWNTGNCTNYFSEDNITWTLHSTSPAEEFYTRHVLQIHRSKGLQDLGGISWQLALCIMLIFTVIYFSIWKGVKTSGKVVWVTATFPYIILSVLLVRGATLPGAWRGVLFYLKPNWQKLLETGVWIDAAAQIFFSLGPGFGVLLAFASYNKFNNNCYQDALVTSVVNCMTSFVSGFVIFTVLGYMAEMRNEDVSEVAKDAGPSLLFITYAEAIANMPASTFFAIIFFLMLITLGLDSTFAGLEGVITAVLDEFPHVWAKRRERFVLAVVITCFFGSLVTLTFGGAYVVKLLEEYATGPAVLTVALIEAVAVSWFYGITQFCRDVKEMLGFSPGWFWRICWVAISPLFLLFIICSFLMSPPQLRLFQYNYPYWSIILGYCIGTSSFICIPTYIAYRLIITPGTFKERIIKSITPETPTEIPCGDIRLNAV
# Sequence of GAT1 (hGAT1) (P30531 whole entry): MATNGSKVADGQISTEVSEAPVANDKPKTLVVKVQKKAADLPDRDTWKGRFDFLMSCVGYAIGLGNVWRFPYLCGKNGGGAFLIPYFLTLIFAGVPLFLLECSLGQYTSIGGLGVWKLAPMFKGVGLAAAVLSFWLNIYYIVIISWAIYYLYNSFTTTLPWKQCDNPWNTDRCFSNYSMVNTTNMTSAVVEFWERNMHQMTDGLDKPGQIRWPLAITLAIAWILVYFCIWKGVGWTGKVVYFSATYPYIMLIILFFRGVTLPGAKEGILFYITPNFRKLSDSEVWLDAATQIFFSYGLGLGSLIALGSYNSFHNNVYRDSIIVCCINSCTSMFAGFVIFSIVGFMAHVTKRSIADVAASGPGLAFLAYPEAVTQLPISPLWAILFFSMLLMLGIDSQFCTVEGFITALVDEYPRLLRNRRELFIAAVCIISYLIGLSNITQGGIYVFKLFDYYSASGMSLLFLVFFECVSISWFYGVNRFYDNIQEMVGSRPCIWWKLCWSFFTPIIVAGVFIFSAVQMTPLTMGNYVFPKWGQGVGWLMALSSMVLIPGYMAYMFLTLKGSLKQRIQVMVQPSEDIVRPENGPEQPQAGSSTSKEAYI
Structure (SMILES),IC50 [2],further results
COc1ccc(C2C3=C(CCCC3=O)Nc3ccccc3N2C(=O)c2ccccc2)cc1OC (stereo not shown) [10b],–,IC50 [1]: 1400 ± 200 nM
CC1(C)CC(=O)C2=C(C1)Nc1ccccc1N(C(=O)c1ccccc1)C2c1ccccc1 (stereo not shown) [11a],1200 ± 100 nM,–
CCOc1cc(C2C3=C(CC(C)(C)CC3=O)Nc3ccccc3N2C(=O)c2ccccc2)ccc1OCc1ccc(Cl)cc1 (stereo not shown) [11aa],> 80000 nM,–
COc1cc(C2C3=C(CC(C)(C)CC3=O)Nc3ccccc3N2C(=O)c2ccccc2)cc(OC)c1OC (stereo not shown) [11ab],11300 ± 14900 nM,–
COc1c(Cl)cc(Cl)cc1C1C2=C(CC(C)(C)CC2=O)Nc2ccccc2N1C(=O)c1ccccc1 (stereo not shown) [11ac],–,"IC50 ([2]; read-out: B^0AT2 IC50, inhibitor): > 80000 nM"
CC1(C)CC(=O)C2=C(C1)Nc1ccccc1N(C(=O)c1ccccc1)C2c1ccc(F)cc1 (stereo not shown) [11b],2000 ± 200 nM,–
CC1(C)CC(=O)C2=C(C1)Nc1ccccc1N(C(=O)c1ccccc1)C2c1ccc(Cl)cc1 (stereo not shown) [11c],900 ± 100 nM,–
CC1(C)CC(=O)C2=C(C1)Nc1ccccc1N(C(=O)c1ccccc1)C2c1ccc(Br)cc1 (stereo not shown) [11d],740 ± 70 nM,–
CC1(C)CC(=O)C2=C(C1)Nc1ccccc1N(C(=O)c1ccccc1)C2c1ccc(C#N)cc1 (stereo not shown) [11e],730 ± 40 nM,–
COc1ccc(C2C3=C(CC(C)(C)CC3=O)Nc3ccccc3N2C(=O)c2ccccc2)cc1 (stereo not shown) [11f],400 ± 30 nM,–
CCOc1ccc(C2C3=C(CC(C)(C)CC3=O)Nc3ccccc3N2C(=O)c2ccccc2)cc1 (stereo not shown) [11g],500 ± 50 nM,–
CC(C)Oc1ccc(C2C3=C(CC(C)(C)CC3=O)Nc3ccccc3N2C(=O)c2ccccc2)cc1 (stereo not shown) [11h],1100 ± 100 nM,–
CCCCOc1ccc(C2C3=C(CC(C)(C)CC3=O)Nc3ccccc3N2C(=O)c2ccccc2)cc1 (stereo not shown) [11i],580 ± 30 nM,–
CCCCCOc1ccc(C2C3=C(CC(C)(C)CC3=O)Nc3ccccc3N2C(=O)c2ccccc2)cc1 (stereo not shown) [11j],1200 ± 100 nM,–
O=C1CCCC2=C1C(c1cccnc1)N(C(=O)c1ccccc1)c1ccccc1N2 (stereo not shown) [12a],–,IC50 [6]: 1600 ± 300 nM
O=C1CCCC2=C1C(c1ccco1)N(C(=O)c1ccccc1)c1ccccc1N2 (stereo not shown) [12b],–,IC50 [6]: 5100 ± 2000 nM

# Further lines, with some results ahead:
IC50 [2],Structure (SMILES),further results
2000 ± 200 nM,CC1(C)CC(=O)C2=C(C1)Nc1ccccc1N(C(=O)c1ccccc1)C2c1ccc(C(F)(F)F)cc1 (stereo not shown) [11k],–
10600 ± 1700 nM,CN(C)c1ccc(C2C3=C(CC(C)(C)CC3=O)Nc3ccccc3N2C(=O)c2ccccc2)cc1 (stereo not shown) [11l],–
1800 ± 300 nM,COC(=O)c1ccc(C2C3=C(CC(C)(C)CC3=O)Nc3ccccc3N2C(=O)c2ccccc2)cc1 (stereo not shown) [11m],–
> 80000 nM,CC1(C)CC(=O)C2=C(C1)Nc1ccccc1N(C(=O)c1ccccc1)C2c1ccc(C(C)(C)C)cc1 (stereo not shown) [11n],IC50 [3]: > 80000 nM; IC50 [4]: > 80000 nM; IC50 [5]: > 80000 nM
22900 ± 14700 nM,CC1(C)CC(=O)C2=C(C1)Nc1ccccc1N(C(=O)c1ccccc1)C2c1cccc(F)c1 (stereo not shown) [11o],–
3200 ± 500 nM,COc1cccc(C2C3=C(CC(C)(C)CC3=O)Nc3ccccc3N2C(=O)c2ccccc2)c1 (stereo not shown) [11p],–
720 ± 70 nM,CCCOc1cccc(C2C3=C(CC(C)(C)CC3=O)Nc3ccccc3N2C(=O)c2ccccc2)c1 (stereo not shown) [11q],–
640 ± 70 nM,CC(=O)Oc1cccc(C2C3=C(CC(C)(C)CC3=O)Nc3ccccc3N2C(=O)c2ccccc2)c1 (stereo not shown) [11r],–
19900 ± 8900 nM,CC1(C)CC(=O)C2=C(C1)Nc1ccccc1N(C(=O)c1ccccc1)C2c1ccccc1F (stereo not shown) [11s],–
> 40000 nM,CC1(C)CC(=O)C2=C(C1)Nc1ccccc1N(C(=O)c1ccccc1)C2c1ccccc1Cl (stereo not shown) [11t],–
> 60000 nM,COc1ccccc1C1C2=C(CC(C)(C)CC2=O)Nc2ccccc2N1C(=O)c1ccccc1 (stereo not shown) [11u],–
240 ± 20 nM,COc1cc(C2C3=C(CC(C)(C)CC3=O)Nc3ccccc3N2C(=O)c2ccccc2)ccc1O (stereo not shown) [11v],IC50 [3]: > 80000 nM; IC50 [4]: > 80000 nM; IC50 [5]: > 80000 nM
7100 ± 2300 nM,COc1ccc(C2C3=C(CC(C)(C)CC3=O)Nc3ccccc3N2C(=O)c2ccccc2)cc1OC (stereo not shown) [11w],–
1100 ± 100 nM,CCCOc1ccc(C2C3=C(CC(C)(C)CC3=O)Nc3ccccc3N2C(=O)c2ccccc2)cc1OC (stereo not shown) [11y],–
2300 ± 400 nM,CC1(C)CC(=O)C2=C(C1)Nc1ccccc1N(C(=O)c1ccccc1)C2c1ccc(Cl)c(Cl)c1 (stereo not shown) [11z],–
